Measured values reported in US20250025490A1, “INDUCTION OF TRAINED IMMUNITY FOR THE TREATMENT OF HYPERPROLIFERATIVE DISORDERS” (priority 2021, published 2025).

How the values were obtained:
peritoneal macrophages [1] = experiment: Mitochondrial fission, TMRM confocal microscopy; format: cell-based, mice; conditions: Mdivi-1 10 μM
Protocol: Confocal microscopy. Poly-L-Lysine-treated glass coverslips were added to 12 well plates to which appropriate numbers of macrophages were added along with 2 ml of sterile complete DMEM. Cells were trained with WGP alone or in combination with Mdivi-1 (10 μM) for 7 days as previously described. After 7 days of incubation, the media was removed, and the cells were washed with sterile PBS followed by addition of TMRM dye (Tetramethylrhodamine, methyl ester, Sigma) for 20 min. After incubation, the cells were washed with PBS and fixed with 1 ml of 4% formalin at room temperature for 20-30 min. The cells were washed thrice with PBS and the glass slides were removed carefully with the help of forceps and mounted on the slides using mounting reagents and left overnight to dry at room temperature or stored at 4° C. protecting from the light. The slides were then read using a Nikon Confocal microscope. Mitochondrial fragment lengths were measured by counting at least 100 mitochondria per sample using an Image-J software.

LLC-GFP tumor cells = experiment: BMDM training and adoptive transfer, LLC-GFP challenge; format: in vivo, mice; conditions: BMDM trained in presence of Mdivi-1
Description: BMDMs were trained in the presence of Mdivi-1 or DMSO. BMDMs (1×10^6) were then adoptively transferred intravenously to WT mice twice 2 days apart. Two days later recipient mice were challenged with LLC-GFP tumor cells. Mice were euthanized at day 21 post tumor challenge to analyze the tumor burden and T cell phenotype in the lungs.
To examine whether ex vivo beta-glucan trained macrophages could be used for adoptive cell therapy, bone marrow-derived macrophages (BMDM) were used for a proof-of-concept study. To this end, BMDM were trained with WGP beta-glucan for 7 days and then adoptively transferred into naïve mice. Recipient mice were then challenged with LLC-GFP tagged lung cancer cells. Mice were euthanized at day 21 (FIG. 15A).

peritoneal macrophages [2] = experiment: In vitro training and re-stimulation of peritoneal macrophages (Example 2), TNF-α ELISA; format: cell-based, mice; conditions: Mdivi-1 10 μM
Protocol: Isolation and culture of peritoneal macrophages. Mice were euthanized with CO2 inhalation and injected i.p. with 5 ml of sterile cold, complete DMEM medium (Sigma Aldrich) followed by gentle massage of the peritoneum. The peritoneal fluid was then collected, centrifuged at 1600 rpm for 5 min. The cell pellet was washed, counted, and plated at appropriate numbers in complete DMEM. The cells were incubated for 2-4 hours at 37° C. and 5% CO2 to allow peritoneal macrophages attached to the plates. The floating cells were aspirated and plates were gently washed with sterile pre-warmed medium and then added with fresh complete DMEM. For comparison studies between different mouse strains, peritoneal cells were stained with viability dye and anti-F4/80 antibodies (Biolegend) and F4/80^+ macrophages were sorted by FACS Aria III (BD Bioscience).
In vitro training and re-stimulation of peritoneal macrophages. Peritoneal macrophages were treated with 25 μg/ml of WGP or polystyrene beads (3 μm, Sigma-Aldrich) and incubated for 24 h at 37°° C. with 5% CO2. Macrophages were then washed with pre-warmed complete DMEM at least twice to remove excess WGP or polystyrene beads, added with fresh complete DMEM and incubated 6 days. On day 7, macrophages were re-stimulated with different stimuli such as LPS (10 ng/ml) (Sigma), tumor cells, tumor cell culture supernatants (40%) or rMIF (100 ng/ml) (kindly provided by Dr. Robert Mitchell) for 24 h. The culture supernatants were harvested and assayed for TNF-α by ELISA. For cell culture supernatants, tumor cell lines including LLC, B16F10, and EL4, and control cell line MLE-12 were used.
These cell lines were cultured (1 million/4 ml complete DMEM) in a 6-well plate and incubated for 72 h. The supernatants were harvested and stored at −80° C. in aliquots.
ELISA for TNF-α and MIF. TNF-α in the culture supernatants was measured using TNF-α ELISA kit (Biolegend) and MIF levels in the culture supernatants were quantified using mouse MIF ELISAkit (R&D Systems) per the manufacturer's instruction.
In vitro training with S1P. Peritoneal macrophages were stimulated with 200 nM or 300 nM of S1P for 24 h at 37° C. and 5% CO2. The macrophages were then washed and allowed for resting. On day 7, the macrophages were stimulated with LPS (10 ng/ml) or LLC culture supernatant (40%) for 24 h and the supernatants were collected for the quantification of TNF-α using ELISA. For another set of in vitro-training experiment, macrophages were trained with S1P in the presence of Mdivi-1 (10 μM) during S1P training and throughout the resting period. Cells were restimulated with LPS and the supernatants were collected to determine TNF-α levels by ELISA.
[…] The inhibitors were further added to the macrophage cultures and incubated at 37° C. and 5% CO2 for 6 more days. On day 7, the macrophages were washed once with pre-warmed complete DMEM and added LPS (10 ng/ml) or LLC culture supernatant (40%) for re-stimulation.

peritoneal macrophages [3] = experiment: Mitochondrial ROS quantitation (MitoSox Red); format: cell-based, mice; conditions: Mdivi-1 50 μM and 75 μM
Protocol: Mitochondrial ROS quantitation. Peritoneal macrophages were treated with WGP or S1P in the presence or absence of Mdivi-1 and incubated at 37° C. with 5% CO2 for 24 h. The cells were then harvested, washed with PBS and pelleted by centrifugation at 1600 rpm for 5 min at room temperature. The pellets were then stained with MitoSOX Red dye (5 μM) (Invitrogen) at 37° C. for 15 min. The cells were washed with pre-warmed HBSS followed by another wash with PBS at room temperature. The cells were then stained with viability dye and anti-F4/80 and then acquired by flow cytometry. Flow cytometry for p-Drp-1. Peritoneal macrophages were treated with WGP (25 μg/ml) or S1P (1 μM) and incubated at 37° C. with 5% CO2 for 3-4 h. Following the completion of incubation, the cells were quickly washed with cold PBS to stop the activation. The cells were harvested and washed with PBS. The cells were then fixed with 4% formaldehyde for 15 min at room temperature, washed with PBS and permeabilized using ice-cold 100% methanol on ice for a minimum of 10 min. The cells were then stained with primary antibody (p-Drp1) (Cell Signaling) for 1 hour at room temperature followed by secondary antibody (Anti-rabbit IgG) (Biolegend) for 30 min at room temperature as instructed in the Cell Signaling phospho-stain protocol and analyzed using flow cytometry.

COc1cc(-n2c(=S)[nH]c3ccccc3c2=O)c(Cl)cc1Cl [Mdivi-1]
effect on WGP-induced mitochondrial fragmentation (peritoneal macrophages [1]): abrogated WGP-induced mitochondrial fragmentation
effect on WGP-trained BMDM-mediated effect (LLC-GFP tumor cells): completely abrogated WGP-trained BDMD-mediated effect
effect on S1P-induced trained immunity (TNF-α) (peritoneal macrophages [2]; LPS): abrogated S1P-induced trained immunity
effect on WGP-mediated trained responses (TNF-α) (peritoneal macrophages [2]; LPS or LLC supernatants): abrogated WGP-mediated trained responses
effect on WGP-mediated mtROS production (peritoneal macrophages [3]): abrogated WGP-mediated mtROS production
